Measured values taken from paper PMC12656565, “In Vitro and Ultrastructural Evaluation of the Cytotoxic and Antileishmanial Activities of Thiosemicarbazone Compounds Against Promastigotes and Axenic Amastigotes of Leishmania infantum” (Tropical Medicine and Infectious Disease, 2025).
“Also recorded” adds a separate entry of the source.

Assays:
[1] = test system: L. infantum promastigote forms; experiment: Ultrastructural analysis (SEM/TEM) of promastigote forms; assay type: cell-based, Leishmania infantum; conditions: promastigotes, 1× and 2× IC50 (Amphotericin B 1× IC50), 72 h
Protocol: Ultrastructural analysis of promastigote and axenic amastigote forms of L. infantum was performed as described by Silva et al., with adaptations. Promastigote and amastigote forms were cultured in modified Schneider’s medium supplemented with 10% fetal bovine serum (FBS), in a BOD incubator at 26 °C and 32 °C, respectively, until reaching the stationary growth phase (72 h). After adjusting cell concentration to 1 × 10^7 cells/mL, samples were incubated with compounds LT-73, LT-75, and amphotericin B at concentrations corresponding to the IC50 and 2× IC50 previously determined, as well as a DMSO control (1% diluted), for 72 h. During incubation, daily microscopic monitoring of cell morphology was performed.
After this period, cells were washed with PBS (phosphate-buffered saline) and fixed in a solution containing 2.5% glutaraldehyde and 4% formaldehyde in 0.1 M phosphate buffer (pH 7.4) for 24 h at 4 °C. For transmission electron microscopy (TEM), cells were post-fixed in 1% osmium tetroxide (OsO4) for 2 h in 0.1 M phosphate buffer (pH 7.2), dehydrated in increasing acetone series (30%, 50%, 70%, 90%, and 3× 100%), embedded in EPON resin, and subjected to ultrathin sectioning using an ultramicrotome. Sections were contrasted with 2% uranyl acetate for 30 min and 2.5% lead citrate for 10 min, then analyzed using a Tecnai G2 Spirit TEM (FEI).
For scanning electron microscopy (SEM), after primary fixation, cells were adhered to coverslips pre-treated with poly-L-lysine for 30 min. Then, cells were washed three times with 0.1 M phosphate buffer (pH 7.2), post-fixed in 1% OsO4 for 2 h, dehydrated in increasing ethanol series (30%, 50%, 70%, 90%, and 3× 100%), subjected to critical point drying using an HCP-2 device (Hitachi (Tokyo, Japan)), and gold-coated (20 nm) using a JFC-1100 device ((JEOL Ltd., Tokyo, Japan)). […]
All images were acquired under standardized laboratory protocols. A minimum of 50 parasites per condition were analyzed by two blinded investigators and no visible precipitation or crystallization occurred during fixation.

[2] = test system: L. infantum promastigote cells; experiment: Mitochondrial membrane potential (Rhodamine 123, flow cytometry); assay type: cell-based, Leishmania infantum; conditions: for Variability Index (VI), range: range over the tested concentrations (1× and 2× IC50; H2O2 control)
Protocol: To evaluate the effects of compounds on the mitochondrial membrane potential (ΔΨm) of Leishmania infantum, the cationic probe Rhodamine 123 (Rod 123) was used through quantitative flow cytometry analysis. […] After incubation, cells were centrifuged at 3000× g for 5 min, and supernatants discarded. […] Hydrogen peroxide (H2O2) at 1 μM was used as positive control, previously described in the literature as an inducer of mitochondrial potential loss. Cells were analyzed by flow cytometry on the FACSCalibur equipment (Becton & Dickinson, San José, CA, USA), with excitation at 488 nm and detection at 505/534 nm. Fifty thousand events per sample were acquired. Data were expressed as percentage of cells stained with Rhodamine 123 for each tested condition. Fluorescence variation was quantified by Variation Index (VI), calculated by the equation: VI = (MT − MC)/MC, where MT corresponds to the median fluorescence of treated cells and MC to the median of control cells (untreated).

J774.A1 macrophages = test system: J774.A1 macrophages; parameters: method as in PMID 33590474; conditions: highest concentration tested 75 µM, previously determined in collaboration with Jacob et al., ref [20]; cited from earlier work
[3] = test system: L. infantum promastigotes; experiment: Apoptosis/necrosis by annexin V-FITC and propidium iodide flow cytometry; assay type: cell-based, Leishmania infantum; conditions: 1× and 2× IC50, 72 h
Protocol: To evaluate cell death types induced by the compounds, promastigote forms of Leishmania infantum (2 × 10^6 cells/mL) were treated with concentrations corresponding to 1× and 2× IC50 of compounds LT-73 and LT-75 for 72 h. After incubation, cells were centrifuged at 3000× g for 5 min, washed with PBS, and subsequently with 1× Buffer Solution provided by the Annexin V-FITC apoptosis detection kit (BD Biosciences, San Jose, CA, USA). Cells were then resuspended in 100 µL Buffer Solution and stained with 5 µL Annexin V conjugated to FITC, incubated for 15 min at room temperature protected from light. After incubation, cells were washed again with 1× Buffer Solution and resuspended in 200 µL of the same buffer. Subsequently, 5 µL propidium iodide (PI) were added to each sample for identification of cells with compromised membrane integrity. Samples were transferred to flow cytometry tubes and analyzed on the FACSCalibur flow cytometer (Becton Dickinson, San José, CA, USA) equipped with CellQuest PRO Software (BD Biosciences; version 5.1), within 4 h after staining. Annexin V-FITC was excited at 488 nm, with fluorescence detected at 530/30 nm; propidium iodide (PI) was excited at 488 nm and detected at 585/42 nm. Single-stained controls for Annexin V-FITC and PI were included in order to apply spillover correction (compensation) between channels.

## C[C@@H]1[C@H](O)[C@@H](C)/C=C/C=C/C=C/C=C/C=C/C=C/C=C/[C@H](O[C@@H]2O[C@H](C)[C@@H](O)[C@H](N)[C@@H]2O)C[C@@H]2O[C@](O)(C[C@@H](O)C[C@@H](O)[C@H](O)CC[C@@H](O)C[C@@H](O)CC(=O)O[C@H]1C)C[C@H](O)[C@H]2C(=O)O [Amphotericin B, reference compound]
[1]
  TEM ultrastructural alterations: membrane rupture, chromatin condensation, and mitochondrial swelling
[2]; 1× IC50, 72 h
  Mean (Rho 123 fluorescence): 213 ± 1
  Variation (Variation Index, VI = (MT − MC)/MC): −0.70 ± 0.01
[2]; 2× IC50, 72 h
  Mean (Rho 123 fluorescence): 193 ± 3
  Variation (Variation Index, VI = (MT − MC)/MC): −0.73 ± 0.02
[2]
  Variability Index (VI), range: −0.018 to −0.73
J774.A1 macrophages
  CC50: 14 ± 0.3 µM
[3]
  Cell death profile by annexin V/PI staining (in words): induced apoptosis as the main form of cell death

## N#Cc1ccc2[nH]cc(/C=N/NC(=S)Nc3ccc(Cl)cc3)c2c1 [LT-75]
[1]
  TEM ultrastructural alterations: extensive damage to the plasma membrane and cytoskeleton
[2]; 1× IC50, 72 h
  Mean (Rho 123 fluorescence): 1425 ± 106
  Variation (Variation Index, VI = (MT − MC)/MC): 1 ± 0.23
[2]; 2× IC50, 72 h
  Mean (Rho 123 fluorescence): 1000 ± 21
  Variation (Variation Index, VI = (MT − MC)/MC): 0.41 ± 0.05
J774.A1 macrophages
  CC50: > 75 µM
[3]
  Cell death profile by annexin V/PI staining (in words): predominance of AV+/PI− staining; also recorded: predominantly induced apoptosis; also recorded: able to induce phosphatidylserine externalization

## S=C(N/N=C/c1c[nH]c2ncccc12)Nc1ccccc1 [LT-73]
[1]
  TEM ultrastructural alterations: disorganization of the plasma membrane, mitochondrial swelling, chromatin condensation, and the presence of numerous vacuoles
[2]; 1× IC50, 72 h
  Mean (Rho 123 fluorescence): 658 ± 9
  Variation (Variation Index, VI = (MT − MC)/MC): −0.07 ± 0.05
[2]; 1× and 2× IC50, 72 h
  Mitochondrial membrane depolarization (in words): depolarization of the mitochondrial membrane; also recorded: induced a alteration in Δψm
[2]; 2× IC50, 72 h
  Mean (Rho 123 fluorescence): 697 ± 7
  Variation (Variation Index, VI = (MT − MC)/MC): −0.02 ± 0.03
[2]
  Variability Index (VI), range: −0.02 to −0.07
J774.A1 macrophages
  CC50: > 75 µM
[3]
  Cell death profile by annexin V/PI staining (in words): predominantly induced AV+/PI− staining; also recorded: predominantly induced apoptosis; also recorded: able to induce phosphatidylserine externalization
